Calls of active or inactive are those of the source. No cut-off for these calls is given here.

The subject of experiment [1] is HT-29. Nature of the experiment: Antiproliferative activity against human HT-29 cells assessed as cell viability at 10 uM after 24 hrs by trypan blue assay. The format is functional. The following applies: HT-29, 24 h, read-out: Activity.
For experiment [2], the system named is HT-29. Nature of the experiment: Antiproliferative activity against human HT-29 cells assessed as inhibition of cell viability after 24 hrs by trypan blue assay. The format is functional, cell-based.
Experiment [3] deals with HT-29. Nature of the experiment: Antiproliferative activity against human HT-29 cells assessed as inhibition of cell viability at 10 uM by trypan blue assay. The format is functional, cell-based. The settings on record: TDE = time-dependent effect.
Another experiment relates to SW-620. Nature of the experiment: Antiproliferative activity against human SW620 cells assessed as inhibition of cell viability at 5 to 10 uM after 24 hrs by trypan blue assay. Format: functional, cell-based.
In experiment [4] the test system is HT-29. Nature of the experiment: Inhibition of carbonic anhydrase 9 expression in human HT-29 cells after 18 hrs by Western blot analysis. The format is functional, cell-based.
For experiment [5], the system named is HT-29. Nature of the experiment: Inhibition of carbonic anhydrase 12 expression in human HT-29 cells after 18 hrs by Western blot analysis. Format: functional, cell-based.
Experiment [6] relates to HT-29. Nature of the experiment: Inhibition of carbonic anhydrase 1 expression in human HT-29 cells at 2.5 to 10 uM after 18 hrs by Western blot analysis. The format is functional, cell-based. (In general: A western blot detects proteins with antibodies after separation by electrophoresis.)
Experiment [7] has as its system HT-29. Nature of the experiment: Inhibition of carbonic anhydrase 2 expression in human HT-29 cells at 2.5 to 10 uM after 18 hrs by Western blot analysis. Format: functional, cell-based.

Usually IC50 stands for the concentration needed to halve the response being measured. `NS(=O)(=O)c1ccc(Nc2nc(-c3ccc(Cl)cc3)nc3ccccc23)cc1`: in the experiment with HT-29 [1], the viability at 10 µM is 12%. Further, the inhibition result is “Dose-dependent effect” with HT-29 [2], “tde” in the experiment with HT-29 [3], “Dose-dependent effect” in the experiment on HT-29 [4] and “Dose-dependent effect” in the experiment on HT-29 [5]. For the same compound, the IC50 in the experiment on HT-29 [2] (HT-29, 24 h) was determined as 5.45 µM. Besides, the inhibition entry in the experiment on SW-620 is “Active”. The inhibition entry with HT-29 [6] and in the experiment on HT-29 [7] was “inactive” in each case.

Source of the values: ChEMBL document CHEMBL3758155, “Development of certain new 2-substituted-quinazolin-4-yl-aminobenzenesulfonamide as potential antitumor agents” (Eur J Med Chem, 2016).
